Test results from US20070037840A1, “Tricyclic benzimidazoles” (Altana Pharma AG, priority 2003, published 2007).

Experiments:
[1] = test system: pentagastrin-stimulated acid secretion of the perfused rat stomach; assay: Secretion-inhibiting action on the perfused rat stomach (pentagastrin-stimulated acid secretion); type: in vivo; details: anesthetized CD rat, dose 2.0 μmol/kg i.d.
Description: Testing of the Secretion-Inhibiting Action on the Perfused Rat Stomach
In Table A which follows, the influence of the compounds of the formula 1 according to the invention on the pentagastrin-stimulated acid secretion of the perfused rat stomach after intraduodenal administration in vivo is shown.
The abdomen of anesthetized rats (CD rat, female, 200-250 g; 1.5 g/kg i.m. urethane) was opened after tracheotomy by a median upper abdominal incision and a PVC catheter was fixed transorally in the esophagus and another via the pylorus such that the ends of the tubes just projected into the gastric lumen. The catheter leading from the pylorus led outward into the right abdominal wall through a side opening.
After thorough rinsing (about 50-100 ml), warm (37° C.) physiological NaCl solution was continuously passed through the stomach (0.5 ml/min, pH 6.8-6.9; Braun-Unita I). The pH (pH meter 632, glass electrode EA 147; φ=5 mm, Metrohm) and, by titration with a freshly prepared 0.01N NaOH solution to pH 7 (Dosimat 665 Metrohm), the secreted HCl were determined in the effluent in each case collected at an interval of 15 minutes.
The gastric secretion was stimulated by continuous infusion of […] (=1.65 ml/h) of i.v. pentagastrin (left femoral vein) about 30 min after the end of the operation (i.e. after determination of 2 preliminary fractions). The substances to be tested were administered intraduodenally in a 2.5 ml/kg liquid volume 60 min after the start of the continuous pentagastrin infusion. The body temperature of the animals was kept at a constant 37.8-38° C. by infrared irradiation and heat pads (automatic, stepless control by means of a rectal temperature sensor).

SMILES | Inhibition of acid secretion [1] [%] | melting point [°C]
COCCO[C@@H]1c2ccc3c(nc(C)n3C)c2N[C@H](c2ccccc2)[C@H]1O [Example 1, (6R,7R,8R)-2,3-Dimethyl-7-hydroxy-6-(2-methoxyethoxy)-8-phenyl-6,7,8,9-tetrahydro-3H-imidazo[4,5h]quinoline] | >50 | 
COCCO[C@H]1c2ccc3c(nc(C)n3C)c2N[C@H](c2ccccc2)[C@H]1O [Example 2, (6S,7R,8R)-2,3-Dimethyl-7-hydroxy-6-(2-methoxyethoxy)-8-phenyl-6,7,8,9-tetrahydro-3H-imidazo[4,5-]quinoline] | <50 | 
CCO[C@@H]1c2ccc3c(nc(C)n3C)c2N[C@H](c2ccccc2)[C@H]1O [Example 3, (6R,7R,8R)-2,3-Dimethyl-6-ethoxy-7-hydroxy-8-phenyl-6,7,8,9-tetrehydro-3H-imidazo[4,5h]-quinoline] | >50 | 
CCO[C@H]1c2ccc3c(nc(C)n3C)c2N[C@H](c2ccccc2)[C@H]1O [Example 4, (6S,7R,8R)-2,3-Dimethyl-6-ethoxy-7-hydroxy-8-phenyl-6,7,8,9-tetrahydro-3H-imidazo[4,5-h]-quinoline] | <50 | 169.9
Cc1nc2c3c(ccc2n1C)[C@@H](O)[C@H](O)[C@@H](c1ccccc1)N3 [Example 5, (6R,7R,8R)-2,3-Dimethyl-6,7-dihydroxyl-8-phenyl-6,7,8,9-tetrahydro-3H-imidazo[4,5-h]quinoline] | >50 | 224.7
Cc1nc2c3c(ccc2n1C)[C@H](O)[C@H](O)[C@@H](c1ccccc1)N3 [Example 6, (6S,7R,8R)-2,3-Dimethyl-6,7-dihydroxy-8-phenyl-6,7,8,9tetrahydro-3H-imidazo[4,5-h]quinoline] | <50 | 235.4
Cc1nc2c3c(ccc2n1C)[C@@H](OCC(F)F)[C@H](O)[C@@H](c1ccccc1)N3 [Example 7, (6R,7R,8R)-2,3-Dimethyl-7-hydroxy-6-(2,2-difluoroethoxy)-8-phenyl-6,7,8,9-tetrahydro-3H-imidazo[4,5-h]quinoline] | >50 | 
